Experimental data from patent USRE47528E1, “Protease for wound conditioning and skin care” (B.R.A.I.N. BIOTECHNOLOGY RESEARCH AND INFORMATION NETWORK AG, priority 2009, dated 2019).
“Also recorded” adds a separate entry of the source.

Columns and labels:
larval secretions = conditions: cited from earlier work
debrilase = test: Liquid phase activity assay and inhibitory profiling (BODIPY-FL-Casein fluorescence assay); format: biochemical, Lucilia sericata; conditions: for inhibition of debrilase activity: PMSF 5 mmol/l, APMSF 1 mmol/l
Protocol: Quantification of proteolytic activity was conducted by a fluorescence assay in 96-well plates with BODIPY-FL-Casein (Molecular Probes) used as substrate. Hereby, on the undigested substrate casein the labelling molecules are in close contact to each other and therefore fluorescence is suppressed by a quenching mechanism. In case of hydrolysis these molecules separate from each other and fluorescence can be excited at 485 nm and measured at 520 nm.
A standard assay contained 5 μg/ml BODIPY-FL-Casein in 100 μl PBS buffer and a series of dilutions of protease extract. Samples were incubated for 60 min at 37° C. and fluorescence was measured using a spectrophotometer (NovoStar, BMG LABTECH, Offenburg, Germany), applying the following parameters: excitation 485 nm, emission 520 nm, gain 5, one cycle, 10 flashes. Serine protease inhibitors APMSF (4-amidinophenylmethanesulfonyl fluoride) and PMSF (phenylmethanesulfonyl fluoride) were used for testing the specificity of the isolated protease. The following assay concentration were used:
The recombinant protease type was identified in a liquid assay in a 96-well plate using inhibitors specific for different types of proteases. Herein, specific inhibitors for trypsin (4-amidinophenylmethyl-sulphonyl fluoride, APMSF), serine (phenylmethylsulphonyl fluoride, PMSF), aspartyl-(pepstatin A) and metallo-type proteases (1,10-phenanthroline) were measured.

[1] = system: Lucilia sericata debrilase (trypsin-like serine protease), mature protein SEQ ID NO: 4, pre-propeptide SEQ ID NO: 2; test: Enzyme kinetics of Debrilase, fluorometric assay with Z-Gly-Gly-Arg-AMC; format: biochemical
Protocol: (§1) Activity of the debrilase was measured in liquid assay using appropriate buffer systems in the range of 3-10 (0.1 to 0.2 M citric acid buffer, pH 3-7; 0.05 M tris buffer, pH 8; 0.1 M carbonate buffer, pH 9-10) and the fluorogenic substrate Z-Gly-Gly-Arg-AMC. The release of 7-amino-4-methylcoumarin (AMC) was measured with a BMC Novostar Fluorometer (λexcitation 365 nm, λemission 440 nm).
Molecular and Enzymatic Properties of Debrilase

casein = test: Diffusion assay on agar containing casein / skim milk; format: biochemical
Text: FIG. 1: Diffusion assay on agar containing casein showing a clearing zone around a debrilase secreting clone of E. coli.
Colony forming units resulted from mass excision described above were screened on agar media containing 2% skim milk under selective conditions. Expression of heterologous proteases was driven by the vector comprising inducible Plac promoter. Colonies expressing heterologous proteases were detected by the formation of clearing zones in the turbid Skim Milk medium around the colonies.

fibrin = test: Solid phase activity assay for fibrinolytic activity (fibrin agar); format: biochemical; conditions: fibrin containing agar
Protocol: To identify fibrinolytic activity in extracts of casein degrading clones a solid agar assay was used. For this, a solution A containing 200 mg agarose, 87 mg NaCl and 3 mg CaCl2 were added to 10 ml 0.1 M Tris pH7.4 and incubated at 50° C. To a second solution B containing 10 ml 0.9% NaCl and 100 mg Fibrin (Sigma F3879), 20 μl Plasminogen (2 units/mg, Sigma P7397) e added and pre-incubated at 50° C. Both solutions were combined with 12 μl Thrombin (175-350 NIH units, Sigma T4265) and spread on agar plates using micro-well forming devices. In case of a fibrinolytic activity a clear zone appears in the opaque medium around extract containing cavities.
To identify fibrinolytic activity in casein degrading clones a solid agar assay was used. Therefore a medium A consisting of 10 ml 2× Luria Bertani containing 200 mg agarose, 87 mg NaCl and 3 mg CaCl2 was incubated at 50° C. To a solution B containing 10 ml 0.9% NaCl and 100 mg Fibrin (Sigma F3879), 20 μl plasminogen (2 units/mg, Sigma P7397) was added and pre-incubated at 50° C. […]
Fibrinolytic activity in cell free crude extracts was determined using buffered agar medium containing fibrin. […] Crude extract with fibrinolytic activity was detected by a clear zone around microwells of the recombinant clone harbouring the protease gene of SEQ ID NO. […]

Z-Gly-Gly-Arg-AMC = test: Fluorometric liquid assay using Z-Gly-Gly-Arg-AMC as substrate; format: biochemical
Protocol: as §1

human PAR2 = target: T1, human PAR2 (Homo sapiens, UniProt P55085); test: Activation of PAR 2 (calcium imaging) in HEK293 cells; format: cell-based; conditions: HEK293 cells endogenously expressing human PAR2, Ca2+-flux read-out
T1 construct: wild type HEK293 cell line endogenously expressing human PAR2; endogenous in cells; host or cells: HEK293
T1 sequence (P55085 26-397): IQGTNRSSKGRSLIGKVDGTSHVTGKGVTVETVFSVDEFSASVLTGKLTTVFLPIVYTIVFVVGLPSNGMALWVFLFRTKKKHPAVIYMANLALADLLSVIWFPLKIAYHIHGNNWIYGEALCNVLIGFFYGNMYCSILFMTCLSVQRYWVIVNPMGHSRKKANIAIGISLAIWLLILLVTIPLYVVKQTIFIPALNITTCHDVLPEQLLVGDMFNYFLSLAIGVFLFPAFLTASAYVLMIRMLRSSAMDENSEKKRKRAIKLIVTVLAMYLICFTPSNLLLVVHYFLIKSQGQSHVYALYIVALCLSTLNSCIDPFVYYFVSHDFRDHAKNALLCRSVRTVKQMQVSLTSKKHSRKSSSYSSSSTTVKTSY
Protocol: The activity of debrilase as agonist of PAR 2 was monitored over time in a cell based fluorescence assay by use of a wild type HEK293 cell line endogenously expressing human PAR2. In brief, 1 day prior to performing the assay, HEK293 cells expressing human PAR2 were plated onto 96-well, black-walled, assay plates, at a density of 45,000 cells per well. Using a 96-well microplate reader (FlexStation®, Molecular Devices, Sunnyvale, Calif.), the change of the cellular calcium concentration was monitored by use of the calcium sensitive fluorescent dye fluo-4 (excitation 494 nm, emission 516 nm). The PAR 2 agonist trypsin (8 nM) was used as positive control. The dye-loaded cells in plates were placed into the fluorescence microplate reader to monitor fluorescence (excitation 488 nm, emission 520 nm) change after the addition of 50 μl assay buffer (118 mM NaCl; 4.7 mM KCl; 1.2 mM MgSO4; 1.2 mM KH2PO4 4.2 mM […]; 1.3 mM CaCl2; 10 mM HEPES (pH: 7.4)) supplemented with an agonist. Calcium mobilization was quantified as the change of peak fluorescence (ΔF) over the baseline level (F). Data were expressed as the mean S.E. of the ΔF/F value (=RFU, relative fluorescence units) of replicated independent samples. The analysis was done with the software of the FlexStation®.

Tosyl-Gly-Pro-Arg-AMC = test: Proteolytic activity against Tosyl-Gly-Pro-Arg-AMC; format: biochemical
Suc-Ala-Ala-Phe-AMC = test: Proteolytic activity against Suc-Ala-Ala-Phe-AMC; format: biochemical

Molecule: c1cnc2c(c1)ccc1cccnc12 [1,10-phenanthroline]
- inhibition of degradation of laminin and fibronectin by larval secretions (larval secretions): not significantly

Molecule: N=C(N)c1ccc(CS(=O)(=O)F)cc1 [APMSF, 4-amidinophenylmethanesulfonyl fluoride]
- inhibition of proteolytic activity of debrilase against casein and fibrin (debrilase): inhibited
- inhibition of debrilase activity (debrilase): inhibited completely
- inhibition of degradation of laminin and fibronectin by larval secretions (larval secretions): not significantly

Molecule: O=S(=O)(F)Cc1ccccc1 [PMSF, phenylmethanesulfonyl fluoride]
- inhibition of proteolytic activity of debrilase against casein and fibrin (debrilase): inhibited
- inhibition of debrilase activity (debrilase): inhibited completely
- inhibition of degradation of laminin and fibronectin by larval secretions (larval secretions): inhibited

Molecule: Cc1cc(=O)oc2cc(NC(=O)[C@H](CCCNC(=N)N)NC(=O)CNC(=O)CNC(=O)OCc3ccccc3)ccc12 [Z-Gly-Gly-Arg-AMC]
- Kcat ([1]; Table 1, substrate Z-Gly-Gly-Arg-AMC (footnote)): 37.5 s⁻¹
- Km ([1]; substrate Z-Gly-Gly-Arg-AMC, fluorometric assay): 70 µM

B1: debrilase: recombinant trypsin-like serine protease from Lucilia sericata; mature protein SEQ ID NO: 4 (protein, listed as Lucilia sericata)
chain: IVNGVDTTIQAHPYQVSLQTNNGFHFCGGSIISEDIIVTAAHCMQSYKAYQFKVRLGSTEYDNGGELVAVKSFKYHEGYNPETMVNDVAVIKLATPVRESSKVRYVKLAEKTPATGTPAVVTGWGSKCFLFCQTAPKVLQKVEVDIVDEKTCASSEYKYGDDIKETMLCAYAVKKDACQGDSGGPLVANNKLVGVVSWGKGCALAGYPGVYCDVATVRSWIEKTAKSL
- caseinolytic activity (cleavage of casein) (casein): clearing zone; also recorded: ability to cleave fibrin and casein; also recorded: exhibits proteolytic activity against fibrin, casein
- fibrinolytic activity (cleavage of fibrin) (fibrin): clearing zone; also recorded: ability to cleave fibrin; also recorded: exhibits proteolytic activity against fibrin
- Topt (Z-Gly-Gly-Arg-AMC): 37 °C
- pHopt (Z-Gly-Gly-Arg-AMC): 8
- pH-range of enzymatic activity (Z-Gly-Gly-Arg-AMC; buffer systems in the range of pH 3-10, Z-Gly-Gly-Arg-AMC): 5-10 pH
- specific activity (Z-Gly-Gly-Arg-AMC; fluorometric assay using Z-Gly-Gly-Arg-AMC as substrate): 90 μmol* · min^−1 · mg^−1 enzyme
- activation of protease-activated receptor 2 (PAR 2) (human PAR2): activates the protease-activated receptor PAR-2
- proteolytic activity against Tosyl-Gly-Pro-Arg-AMC (Tosyl-Gly-Pro-Arg-AMC): exhibits proteolytic activity against fibrin, casein and Tosyl-Gly-Pro-Arg-AMC
- proteolytic activity against Suc-Ala-Ala-Phe-AMC (Suc-Ala-Ala-Phe-AMC): not against Suc-Ala-Ala-Phe-AMC
